Results taken from PubChem BioAssay AID1963837 (Molecular Pharmacology Branch, DTP, NCI, 2024).

Each molecule was assayed on 843126-344-R-J1-PDC complex spheroid viability (assay: Anticancer human tumor 843126-344-R-J1-PDC patient-derived melanoma cell line growth inhibition [POLQ]). Settings: second compound 3.16 µM; first compound 0.1 µM; active compounds read low.
Outline: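 Complex spheroid viability model combining PDC tumour cells with endothelial (HUVEC) and MSC stromal cells. Novobiocin, ART-558 or RP6685 were tested singly and in combination with standard and investigational anticancer drugs. Each was titrated in half-log steps from near clinical Cmax, or from 10 microM where Cmax was unknown.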
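Also: spheroids exposed to drugs for seven days before readout.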

Row | SMILES | viability, T/C
1 | CCc1cc2c(N3CCc4c(cc(Cn5ccnc5)cc4-c4cn(C)nc4C(F)(F)F)C3=O)ccnc2c(OC)n1 + Cc1cccc(N(C)C(=O)C2C(O)CCN2c2nc(C)cc(C(F)(F)F)c2C#N)c1 | 84.8%
2 | COc1cc2cc(C(=O)CCC(=O)O)sc2cc1OC + Cc1cccc(N(C)C(=O)C2C(O)CCN2c2nc(C)cc(C(F)(F)F)c2C#N)c1 | 83%
3 | COc1ccc([C@@H](O)c2cc(-c3ncnc4cc(N5CCOCC5)ccc34)c(F)cc2Cl)nn1 + Cc1cccc(N(C)C(=O)C2C(O)CCN2c2nc(C)cc(C(F)(F)F)c2C#N)c1 | 89.1%
4 | O=C(Nc1ccc(O)c(NS(=O)(=O)c2ccc(F)cc2)c1)c1ccc(-c2ccccc2)cc1 + Cc1cccc(N(C)C(=O)C2C(O)CCN2c2nc(C)cc(C(F)(F)F)c2C#N)c1 | 97.7%

Same assay, conditions: second compound 3.16 µM; first compound 0.316 µM; active compounds read low

Row | SMILES | viability, T/C
5 | C#Cc1c(F)ccc2cc(O)cc(-c3ncc4c(N5CC6CCC(C5)N6)nc(OCC56CCCN5CC(F)C6)nc4c3F)c12 (configuration not stated) + Cc1cccc(N(C)C(=O)C2C(O)CCN2c2nc(C)cc(C(F)(F)F)c2C#N)c1 | 87.3%
6 | C=CC(=O)N1CCN(c2nc(=O)n(-c3c(C)ccnc3C(C)C)c3nc(-c4c(O)cccc4F)c(F)cc23)C(C)C1 (configuration not stated) + Cc1cccc(N(C)C(=O)C2C(O)CCN2c2nc(C)cc(C(F)(F)F)c2C#N)c1 | 104%
7 | CC(C)n1c(=O)n(C)c2cnc3cc(F)c(-c4ccc(OCCCN5CCCCC5)nc4)cc3c21 + Cc1cccc(N(C)C(=O)C2C(O)CCN2c2nc(C)cc(C(F)(F)F)c2C#N)c1 | 106%
8 | CCc1cc2c(N3CCc4c(cc(Cn5ccnc5)cc4-c4cn(C)nc4C(F)(F)F)C3=O)cc(C)nc2c(OC)n1 + Cc1cccc(N(C)C(=O)C2C(O)CCN2c2nc(C)cc(C(F)(F)F)c2C#N)c1 | 87.7%
9 | CCc1cc2c(N3CCc4c(cc(Cn5ccnc5)cc4-c4cn(C)nc4C(F)(F)F)C3=O)ccnc2c(OC)n1 + Cc1cccc(N(C)C(=O)C2C(O)CCN2c2nc(C)cc(C(F)(F)F)c2C#N)c1 | 79.3%
10 | COc1cc2cc(C(=O)CCC(=O)O)sc2cc1OC + Cc1cccc(N(C)C(=O)C2C(O)CCN2c2nc(C)cc(C(F)(F)F)c2C#N)c1 | 98.5%
11 | COc1ccc([C@@H](O)c2cc(-c3ncnc4cc(N5CCOCC5)ccc34)c(F)cc2Cl)nn1 + Cc1cccc(N(C)C(=O)C2C(O)CCN2c2nc(C)cc(C(F)(F)F)c2C#N)c1 | 92.7%
12 | O=C(Nc1ccc(O)c(NS(=O)(=O)c2ccc(F)cc2)c1)c1ccc(-c2ccccc2)cc1 + Cc1cccc(N(C)C(=O)C2C(O)CCN2c2nc(C)cc(C(F)(F)F)c2C#N)c1 | 89%

Same assay, conditions: second compound 3.16 µM; first compound 1 µM; active compounds read low

Row | SMILES | viability, T/C
13 | C#Cc1c(F)ccc2cc(O)cc(-c3ncc4c(N5CC6CCC(C5)N6)nc(OCC56CCCN5CC(F)C6)nc4c3F)c12 (configuration not stated) + Cc1cccc(N(C)C(=O)C2C(O)CCN2c2nc(C)cc(C(F)(F)F)c2C#N)c1 | 93.7%
14 | C=CC(=O)N1CCN(c2nc(=O)n(-c3c(C)ccnc3C(C)C)c3nc(-c4c(O)cccc4F)c(F)cc23)C(C)C1 (configuration not stated) + Cc1cccc(N(C)C(=O)C2C(O)CCN2c2nc(C)cc(C(F)(F)F)c2C#N)c1 | 91.5%
15 | CC(C)n1c(=O)n(C)c2cnc3cc(F)c(-c4ccc(OCCCN5CCCCC5)nc4)cc3c21 + Cc1cccc(N(C)C(=O)C2C(O)CCN2c2nc(C)cc(C(F)(F)F)c2C#N)c1 | 99.1%
16 | CCc1cc2c(N3CCc4c(cc(Cn5ccnc5)cc4-c4cn(C)nc4C(F)(F)F)C3=O)cc(C)nc2c(OC)n1 + Cc1cccc(N(C)C(=O)C2C(O)CCN2c2nc(C)cc(C(F)(F)F)c2C#N)c1 | 70.9%
17 | CCc1cc2c(N3CCc4c(cc(Cn5ccnc5)cc4-c4cn(C)nc4C(F)(F)F)C3=O)ccnc2c(OC)n1 + Cc1cccc(N(C)C(=O)C2C(O)CCN2c2nc(C)cc(C(F)(F)F)c2C#N)c1 | 72.4%
18 | COc1cc2cc(C(=O)CCC(=O)O)sc2cc1OC + Cc1cccc(N(C)C(=O)C2C(O)CCN2c2nc(C)cc(C(F)(F)F)c2C#N)c1 | 98.4%
19 | COc1ccc([C@@H](O)c2cc(-c3ncnc4cc(N5CCOCC5)ccc34)c(F)cc2Cl)nn1 + Cc1cccc(N(C)C(=O)C2C(O)CCN2c2nc(C)cc(C(F)(F)F)c2C#N)c1 | 81.9%
20 | O=C(Nc1ccc(O)c(NS(=O)(=O)c2ccc(F)cc2)c1)c1ccc(-c2ccccc2)cc1 + Cc1cccc(N(C)C(=O)C2C(O)CCN2c2nc(C)cc(C(F)(F)F)c2C#N)c1 | 90.6%

Same assay, conditions: second compound 3.16 µM; first compound 3.16 µM; active compounds read low

Row | SMILES | viability, T/C
21 | C#Cc1c(F)ccc2cc(O)cc(-c3ncc4c(N5CC6CCC(C5)N6)nc(OCC56CCCN5CC(F)C6)nc4c3F)c12 (configuration not stated) + Cc1cccc(N(C)C(=O)C2C(O)CCN2c2nc(C)cc(C(F)(F)F)c2C#N)c1 | 82.7%
22 | C=CC(=O)N1CCN(c2nc(=O)n(-c3c(C)ccnc3C(C)C)c3nc(-c4c(O)cccc4F)c(F)cc23)C(C)C1 (configuration not stated) + Cc1cccc(N(C)C(=O)C2C(O)CCN2c2nc(C)cc(C(F)(F)F)c2C#N)c1 | 120%
23 | CC(C)n1c(=O)n(C)c2cnc3cc(F)c(-c4ccc(OCCCN5CCCCC5)nc4)cc3c21 + Cc1cccc(N(C)C(=O)C2C(O)CCN2c2nc(C)cc(C(F)(F)F)c2C#N)c1 | 91.9%
24 | CCc1cc2c(N3CCc4c(cc(Cn5ccnc5)cc4-c4cn(C)nc4C(F)(F)F)C3=O)cc(C)nc2c(OC)n1 + Cc1cccc(N(C)C(=O)C2C(O)CCN2c2nc(C)cc(C(F)(F)F)c2C#N)c1 | 77.8%
25 | CCc1cc2c(N3CCc4c(cc(Cn5ccnc5)cc4-c4cn(C)nc4C(F)(F)F)C3=O)ccnc2c(OC)n1 + Cc1cccc(N(C)C(=O)C2C(O)CCN2c2nc(C)cc(C(F)(F)F)c2C#N)c1 | 69.3%
26 | COc1cc2cc(C(=O)CCC(=O)O)sc2cc1OC + Cc1cccc(N(C)C(=O)C2C(O)CCN2c2nc(C)cc(C(F)(F)F)c2C#N)c1 | 96.3%
27 | COc1ccc([C@@H](O)c2cc(-c3ncnc4cc(N5CCOCC5)ccc34)c(F)cc2Cl)nn1 + Cc1cccc(N(C)C(=O)C2C(O)CCN2c2nc(C)cc(C(F)(F)F)c2C#N)c1 | 97.4%
28 | O=C(Nc1ccc(O)c(NS(=O)(=O)c2ccc(F)cc2)c1)c1ccc(-c2ccccc2)cc1 + Cc1cccc(N(C)C(=O)C2C(O)CCN2c2nc(C)cc(C(F)(F)F)c2C#N)c1 | 84.6%

Same assay, conditions: second compound 3.16 µM; first compound 10 µM; active compounds read low

Row | SMILES | viability, T/C
29 | C#Cc1c(F)ccc2cc(O)cc(-c3ncc4c(N5CC6CCC(C5)N6)nc(OCC56CCCN5CC(F)C6)nc4c3F)c12 (configuration not stated) + Cc1cccc(N(C)C(=O)C2C(O)CCN2c2nc(C)cc(C(F)(F)F)c2C#N)c1 | 69.8%
30 | C=CC(=O)N1CCN(c2nc(=O)n(-c3c(C)ccnc3C(C)C)c3nc(-c4c(O)cccc4F)c(F)cc23)C(C)C1 (configuration not stated) + Cc1cccc(N(C)C(=O)C2C(O)CCN2c2nc(C)cc(C(F)(F)F)c2C#N)c1 | 66.8%
31 | CC(C)n1c(=O)n(C)c2cnc3cc(F)c(-c4ccc(OCCCN5CCCCC5)nc4)cc3c21 + Cc1cccc(N(C)C(=O)C2C(O)CCN2c2nc(C)cc(C(F)(F)F)c2C#N)c1 | 73.1%
32 | CCc1cc2c(N3CCc4c(cc(Cn5ccnc5)cc4-c4cn(C)nc4C(F)(F)F)C3=O)cc(C)nc2c(OC)n1 + Cc1cccc(N(C)C(=O)C2C(O)CCN2c2nc(C)cc(C(F)(F)F)c2C#N)c1 | 56.8%
33 | CCc1cc2c(N3CCc4c(cc(Cn5ccnc5)cc4-c4cn(C)nc4C(F)(F)F)C3=O)ccnc2c(OC)n1 + Cc1cccc(N(C)C(=O)C2C(O)CCN2c2nc(C)cc(C(F)(F)F)c2C#N)c1 | 63.1%
34 | COc1cc2cc(C(=O)CCC(=O)O)sc2cc1OC + Cc1cccc(N(C)C(=O)C2C(O)CCN2c2nc(C)cc(C(F)(F)F)c2C#N)c1 | 82.3%
35 | COc1ccc([C@@H](O)c2cc(-c3ncnc4cc(N5CCOCC5)ccc34)c(F)cc2Cl)nn1 + Cc1cccc(N(C)C(=O)C2C(O)CCN2c2nc(C)cc(C(F)(F)F)c2C#N)c1 | 65.6%
36 | O=C(Nc1ccc(O)c(NS(=O)(=O)c2ccc(F)cc2)c1)c1ccc(-c2ccccc2)cc1 + Cc1cccc(N(C)C(=O)C2C(O)CCN2c2nc(C)cc(C(F)(F)F)c2C#N)c1 | 69%

Same assay, conditions: second compound 10 µM; first compound 0.0316 µM; active compounds read low

Row | SMILES | viability, T/C
37 | C#Cc1c(F)ccc2cc(O)cc(-c3ncc4c(N5CC6CCC(C5)N6)nc(OCC56CCCN5CC(F)C6)nc4c3F)c12 (configuration not stated) + Cc1cccc(N(C)C(=O)C2C(O)CCN2c2nc(C)cc(C(F)(F)F)c2C#N)c1 | 102%
38 | C=CC(=O)N1CCN(c2nc(=O)n(-c3c(C)ccnc3C(C)C)c3nc(-c4c(O)cccc4F)c(F)cc23)C(C)C1 (configuration not stated) + Cc1cccc(N(C)C(=O)C2C(O)CCN2c2nc(C)cc(C(F)(F)F)c2C#N)c1 | 77.1%
39 | CC(C)n1c(=O)n(C)c2cnc3cc(F)c(-c4ccc(OCCCN5CCCCC5)nc4)cc3c21 + Cc1cccc(N(C)C(=O)C2C(O)CCN2c2nc(C)cc(C(F)(F)F)c2C#N)c1 | 93.4%
40 | CCc1cc2c(N3CCc4c(cc(Cn5ccnc5)cc4-c4cn(C)nc4C(F)(F)F)C3=O)cc(C)nc2c(OC)n1 + Cc1cccc(N(C)C(=O)C2C(O)CCN2c2nc(C)cc(C(F)(F)F)c2C#N)c1 | 92%
41 | CCc1cc2c(N3CCc4c(cc(Cn5ccnc5)cc4-c4cn(C)nc4C(F)(F)F)C3=O)ccnc2c(OC)n1 + Cc1cccc(N(C)C(=O)C2C(O)CCN2c2nc(C)cc(C(F)(F)F)c2C#N)c1 | 88.2%
42 | COc1cc2cc(C(=O)CCC(=O)O)sc2cc1OC + Cc1cccc(N(C)C(=O)C2C(O)CCN2c2nc(C)cc(C(F)(F)F)c2C#N)c1 | 95.7%
